From patent US9340590B2 (priority 2011, dated 2016)
pIC50: −log10 of the molar value. Read-outs that look alike come from different tables or passages of the source. Positions of bridges follow the written chain, without caps; N, C: chain ends. Non-standard residues stand in square brackets, D forms with d. Residues, ends and D or L forms follow the SMILES beside them. *: point of attachment. Arg(Me2s) = CN=C(NC)NCCC[C@H](N)C(=O)O; Phg = N[C@H](C(=O)O)c1ccccc1; Pent4ynoyl = C#CCCC(=O)*; Abu = CC[C@H](N)C(=O)O

Tests used:
Assay in all cases: cell-based
[1] = biological target: hNav1.3 (Homo sapiens, UniProt Q9NY46); conditions: IonWorks Quattro, read-out: IWQ Use Nav1.3
[2] = biological target: hNav1.5 (Homo sapiens, UniProt Q14524); conditions: IonWorks Quattro, read-out: IWQ Use Nav1.5
[3] = biological target: hNav1.7 (Homo sapiens, UniProt Q15858); assay type: cell-based; conditions: IonWorks Quattro, read-out: IWQ Use Nav1.7
[4] = clamped to −110 mV, depolarized to −10 mV, 5 min after compound, n=2

Sequence of hNav1.7 (Q15858 whole entry, looked up): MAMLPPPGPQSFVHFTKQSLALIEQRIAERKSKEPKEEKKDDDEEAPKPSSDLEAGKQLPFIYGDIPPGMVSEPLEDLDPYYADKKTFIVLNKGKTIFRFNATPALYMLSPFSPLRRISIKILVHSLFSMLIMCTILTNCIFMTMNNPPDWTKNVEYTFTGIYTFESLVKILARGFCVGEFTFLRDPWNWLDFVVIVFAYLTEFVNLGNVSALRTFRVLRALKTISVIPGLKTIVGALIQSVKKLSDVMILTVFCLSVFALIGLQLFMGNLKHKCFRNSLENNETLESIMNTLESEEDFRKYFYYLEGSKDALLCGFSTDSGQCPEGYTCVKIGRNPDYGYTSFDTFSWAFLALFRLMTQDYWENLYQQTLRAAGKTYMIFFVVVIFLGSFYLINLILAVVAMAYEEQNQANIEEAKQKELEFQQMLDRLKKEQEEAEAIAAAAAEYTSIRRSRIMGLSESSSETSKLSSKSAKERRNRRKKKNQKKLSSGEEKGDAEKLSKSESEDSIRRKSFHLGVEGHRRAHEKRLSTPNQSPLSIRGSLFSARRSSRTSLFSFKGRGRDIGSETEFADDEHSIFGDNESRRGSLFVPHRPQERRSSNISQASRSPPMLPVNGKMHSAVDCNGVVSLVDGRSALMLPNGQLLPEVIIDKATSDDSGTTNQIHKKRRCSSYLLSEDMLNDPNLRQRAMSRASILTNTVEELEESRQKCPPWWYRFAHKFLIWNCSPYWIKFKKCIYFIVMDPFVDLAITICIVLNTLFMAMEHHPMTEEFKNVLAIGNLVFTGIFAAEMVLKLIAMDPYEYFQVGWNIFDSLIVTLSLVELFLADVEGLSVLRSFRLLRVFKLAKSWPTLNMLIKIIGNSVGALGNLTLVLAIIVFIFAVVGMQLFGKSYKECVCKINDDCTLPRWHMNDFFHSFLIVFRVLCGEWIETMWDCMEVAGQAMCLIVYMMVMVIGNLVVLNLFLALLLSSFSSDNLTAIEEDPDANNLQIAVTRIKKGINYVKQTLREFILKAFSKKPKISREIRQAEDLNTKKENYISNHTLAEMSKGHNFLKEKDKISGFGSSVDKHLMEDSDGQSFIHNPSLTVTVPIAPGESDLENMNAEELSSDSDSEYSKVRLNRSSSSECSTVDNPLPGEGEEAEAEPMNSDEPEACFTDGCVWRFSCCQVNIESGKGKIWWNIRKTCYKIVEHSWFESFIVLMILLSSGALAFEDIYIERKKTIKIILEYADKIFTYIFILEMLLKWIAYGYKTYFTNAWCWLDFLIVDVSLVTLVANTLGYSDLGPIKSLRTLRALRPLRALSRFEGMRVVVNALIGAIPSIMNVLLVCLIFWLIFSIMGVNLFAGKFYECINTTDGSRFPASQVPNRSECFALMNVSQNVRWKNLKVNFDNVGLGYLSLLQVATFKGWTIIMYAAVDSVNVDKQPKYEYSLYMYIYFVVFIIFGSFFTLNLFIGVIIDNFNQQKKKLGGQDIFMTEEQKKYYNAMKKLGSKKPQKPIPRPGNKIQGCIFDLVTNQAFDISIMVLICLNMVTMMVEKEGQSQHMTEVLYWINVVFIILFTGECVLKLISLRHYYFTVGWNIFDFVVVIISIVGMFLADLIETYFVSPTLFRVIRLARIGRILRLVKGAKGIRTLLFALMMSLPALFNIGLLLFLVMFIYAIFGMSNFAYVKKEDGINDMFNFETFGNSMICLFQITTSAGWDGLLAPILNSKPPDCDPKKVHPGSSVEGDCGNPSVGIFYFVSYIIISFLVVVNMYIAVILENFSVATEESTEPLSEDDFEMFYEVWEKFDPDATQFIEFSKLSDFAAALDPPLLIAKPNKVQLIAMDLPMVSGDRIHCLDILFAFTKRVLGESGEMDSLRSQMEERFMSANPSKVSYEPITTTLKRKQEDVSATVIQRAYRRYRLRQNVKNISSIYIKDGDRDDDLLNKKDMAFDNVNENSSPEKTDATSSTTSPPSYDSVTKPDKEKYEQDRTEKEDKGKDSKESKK
Sequence of hNav1.5 (Q14524 whole entry, looked up): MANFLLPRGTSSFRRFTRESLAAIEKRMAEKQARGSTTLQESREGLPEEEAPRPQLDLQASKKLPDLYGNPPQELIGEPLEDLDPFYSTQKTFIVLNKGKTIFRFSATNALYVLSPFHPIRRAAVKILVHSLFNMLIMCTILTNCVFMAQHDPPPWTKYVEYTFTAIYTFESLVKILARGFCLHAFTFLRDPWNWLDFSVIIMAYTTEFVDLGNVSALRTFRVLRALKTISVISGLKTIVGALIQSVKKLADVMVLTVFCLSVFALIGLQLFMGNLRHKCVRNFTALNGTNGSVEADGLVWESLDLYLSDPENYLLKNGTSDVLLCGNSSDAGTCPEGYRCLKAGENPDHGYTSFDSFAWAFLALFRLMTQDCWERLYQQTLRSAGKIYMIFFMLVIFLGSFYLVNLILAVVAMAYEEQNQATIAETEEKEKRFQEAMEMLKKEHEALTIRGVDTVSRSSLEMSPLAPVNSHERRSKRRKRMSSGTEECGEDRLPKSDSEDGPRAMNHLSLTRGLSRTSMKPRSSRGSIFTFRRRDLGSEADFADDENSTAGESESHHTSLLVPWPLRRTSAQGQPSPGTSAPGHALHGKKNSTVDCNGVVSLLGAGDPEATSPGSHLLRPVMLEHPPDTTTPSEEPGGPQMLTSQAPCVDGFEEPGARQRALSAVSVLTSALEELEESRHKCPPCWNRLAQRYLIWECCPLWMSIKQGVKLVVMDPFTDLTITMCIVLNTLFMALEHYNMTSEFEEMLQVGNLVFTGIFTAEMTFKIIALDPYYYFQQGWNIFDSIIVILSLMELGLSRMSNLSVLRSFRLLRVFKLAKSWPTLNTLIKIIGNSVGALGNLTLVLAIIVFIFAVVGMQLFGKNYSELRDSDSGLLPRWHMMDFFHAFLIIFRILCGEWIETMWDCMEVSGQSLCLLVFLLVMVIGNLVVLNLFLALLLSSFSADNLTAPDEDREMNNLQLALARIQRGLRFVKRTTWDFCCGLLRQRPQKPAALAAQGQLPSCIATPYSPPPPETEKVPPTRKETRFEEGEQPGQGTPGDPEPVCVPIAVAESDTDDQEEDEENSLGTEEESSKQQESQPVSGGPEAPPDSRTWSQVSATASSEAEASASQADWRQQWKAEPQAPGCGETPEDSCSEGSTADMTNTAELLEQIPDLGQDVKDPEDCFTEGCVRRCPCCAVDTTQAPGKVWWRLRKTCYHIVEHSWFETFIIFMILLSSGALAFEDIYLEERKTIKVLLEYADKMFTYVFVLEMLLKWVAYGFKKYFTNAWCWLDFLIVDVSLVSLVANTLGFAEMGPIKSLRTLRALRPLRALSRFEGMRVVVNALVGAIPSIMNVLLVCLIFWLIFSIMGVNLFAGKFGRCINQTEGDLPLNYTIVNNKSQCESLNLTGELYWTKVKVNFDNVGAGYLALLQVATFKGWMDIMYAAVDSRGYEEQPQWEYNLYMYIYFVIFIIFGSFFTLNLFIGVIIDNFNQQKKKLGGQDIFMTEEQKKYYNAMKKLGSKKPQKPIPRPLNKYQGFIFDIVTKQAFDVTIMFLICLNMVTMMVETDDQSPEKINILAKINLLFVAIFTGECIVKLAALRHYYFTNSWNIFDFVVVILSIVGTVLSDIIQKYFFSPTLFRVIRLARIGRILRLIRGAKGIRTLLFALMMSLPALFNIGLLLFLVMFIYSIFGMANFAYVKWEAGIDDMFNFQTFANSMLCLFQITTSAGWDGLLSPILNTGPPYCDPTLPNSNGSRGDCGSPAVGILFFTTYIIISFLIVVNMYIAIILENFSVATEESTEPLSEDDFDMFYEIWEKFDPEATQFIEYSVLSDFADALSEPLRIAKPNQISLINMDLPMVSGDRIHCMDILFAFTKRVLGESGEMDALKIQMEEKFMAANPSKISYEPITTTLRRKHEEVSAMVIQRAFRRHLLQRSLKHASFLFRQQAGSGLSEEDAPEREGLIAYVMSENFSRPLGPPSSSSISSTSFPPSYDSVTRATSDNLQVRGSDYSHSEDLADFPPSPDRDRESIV

Row | SMILES | pIC50 ([1]; use-dependent block, hNav1.3) | pIC50 ([2]; use-dependent block, hNav1.5) | pIC50 ([3]; use-dependent block, hNav1.7) | also measured
1 | CC[C@H](C)[C@@H]1NC(=O)[C@@H]2CSSC[C@@H]3NC(=O)[C@H](C(C)C)NC(=O)[C@H](CC(C)C)NC(=O)[C@H](CC(N)=O)NC(=O)[C@@H]4CCCN4C(=O)[C@H](CCCNC(=N)N)NC(=O)[C@H](CSSC[C@H](NC(=O)[C@@H](N)CC(=O)O)C(=O)N[C@@H](CC(C)C)C(=O)NCC(=O)N[C@@H](C)C(=O)N[C@@H](CC(C)C)C(=O)N[C@@H](CCCNC(=N)N)C(=O)N[C@@H](CCCCN)C(=O)N2)NC(=O)[C@H](CSSC[C@@H](C(=O)N[C@@H](CCCCN)C(=O)N[C@@H](Cc2ccc(O)cc2)C(=O)N[C@H](C(=O)N[C@@H](Cc2ccccc2)C(N)=O)C(C)C)NC(=O)[C@H](Cc2c[nH]c4ccccc24)NC(=O)[C@H](CCCCN)NC(=O)[C@H](Cc2c[nH]cn2)NC(=O)[C@H]([C@@H](C)O)NC(=O)[C@H](C)NC(=O)[C@H](CO)NC3=O)NC(=O)[C@H](CCCCN)NC(=O)[C@H](CC(=O)O)NC(=O)[C@H](CC(N)=O)NC(=O)[C@H](CC(=O)O)NC(=O)[C@@H]2CCCN2C1=O [compound 731] | 5.55 | 4.42 | 6.22 | 
2 | CC[C@H](C)[C@@H]1NC(=O)[C@@H]2CSSC[C@@H]3NC(=O)[C@H](C(C)C)NC(=O)[C@H](CC(C)C)NC(=O)[C@H](CC(N)=O)NC(=O)[C@@H]4CCCN4C(=O)[C@H](CCCNC(=N)N)NC(=O)[C@H](CSSC[C@H](NC(=O)[C@@H](N)CC(=O)O)C(=O)N[C@@H](CC(C)C)C(=O)NCC(=O)N[C@@H](Cc4ccccc4)C(=O)N[C@@H](CCSC)C(=O)N[C@@H](CCCNC(=N)N)C(=O)N[C@@H](CCCCN)C(=O)N2)NC(=O)[C@H](CSSC[C@@H](C(=O)N[C@@H](CCCCN)C(=O)N[C@@H](Cc2ccc(O)cc2)C(=O)N[C@H](C(=O)N[C@@H](Cc2ccccc2)C(N)=O)C(C)C)NC(=O)[C@H](c2ccccc2)NC(=O)[C@H](CCCCN)NC(=O)[C@H](Cc2c[nH]cn2)NC(=O)[C@H]([C@@H](C)O)NC(=O)[C@H](CCCNC(=N)N)NC(=O)[C@H](CO)NC3=O)NC(=O)[C@H](CCCCN)NC(=O)[C@H](CC(=O)O)NC(=O)[C@H](CC(N)=O)NC(=O)[C@H](CC(=O)O)NC(=O)[C@@H]2CCCN2C1=O [compound 362] (H-DCLGFMRKCIPDNDKCCRPNLVCSRTHK[Phg]CKYVF-NH2; disulfide 2-17, 9-23, 16-30) |  |  |  | pIC50 ([1]; Table 24, use, […]): 5.50; pIC50 ([2]; Table 24, use, […]): 5.11; pIC50 ([3]; Table 24, use, […]): 5.26
3 | CSCC[C@@H]1NC(=O)[C@H](Cc2ccccc2)NC(=O)CNC(=O)[C@H](CC(C)C)NC(=O)[C@@H](NC(=O)[C@@H](N)CC(=O)O)CSSC[C@@H]2NC(=O)[C@@H]3CSSC[C@@H](C(=O)N[C@@H](CCCCN)C(=O)N[C@@H](Cc4cccc5ccccc45)C(=O)N[C@H](C(=O)N[C@@H](Cc4ccccc4)C(N)=O)C(C)C)NC(=O)[C@H](Cc4c[nH]c5ccccc45)NC(=O)[C@H](CCCCN)NC(=O)[C@H](Cc4c[nH]cn4)NC(=O)[C@H]([C@@H](C)O)NC(=O)[C@H](CCCNC(=N)N)NC(=O)[C@H](CO)NC(=O)[C@H](CSSC[C@H](NC(=O)[C@H](CCCCN)NC(=O)[C@H](CCCNC(=N)N)NC1=O)C(=O)N[C@@H](Cc1cccc4ccccc14)C(=O)N1CCC[C@H]1C(=O)N[C@@H](CC(=O)O)C(=O)N[C@@H](CC(N)=O)C(=O)N[C@@H](CC(=O)O)C(=O)N[C@@H](CCCCN)C(=O)N3)NC(=O)[C@H](C(C)C)NC(=O)[C@H](CC(C)C)NC(=O)[C@H](CC(N)=O)NC(=O)[C@@H]1CCCN1C(=O)[C@H](CCCNC(=N)N)NC2=O [compound 452] | 8.52 | < 5.30 | 8.30 | 
4 | CC[C@H](C)[C@@H]1NC(=O)[C@@H]2CSSC[C@@H]3NC(=O)[C@H](C(C)C)NC(=O)[C@H](CC(C)C)NC(=O)[C@H](CC(N)=O)NC(=O)[C@@H]4CCCN4C(=O)[C@H](CCCNC(=N)N)NC(=O)[C@H](CSSC[C@H](NC(=O)[C@@H](N)CC(=O)O)C(=O)N[C@@H](CC(C)C)C(=O)NCC(=O)N[C@@H](C)C(=O)N[C@@H](CCSC)C(=O)N[C@@H](CCCNC(=N)N)C(=O)N[C@@H](CCCCN)C(=O)N2)NC(=O)[C@H](CSSC[C@@H](C(=O)N[C@@H](CCCCN)C(=O)N[C@@H](Cc2ccc(O)cc2)C(=O)N[C@H](C(=O)N[C@@H](Cc2ccccc2)C(N)=O)C(C)C)NC(=O)[C@H](Cc2c[nH]c4ccccc24)NC(=O)[C@H](CCCCN)NC(=O)[C@H](Cc2c[nH]cn2)NC(=O)[C@H]([C@@H](C)O)NC(=O)[C@H](CCCNC(=N)N)NC(=O)[C@H](CO)NC3=O)NC(=O)[C@H](CCC(=O)O)NC(=O)[C@H](CC(=O)O)NC(=O)[C@H](CC(N)=O)NC(=O)[C@H](CC(=O)O)NC(=O)[C@@H]2CCCN2C1=O [compound 439] (H-DCLGAMRKCIPDNDECCRPNLVCSRTHKWCKYVF-NH2; disulfide 2-17, 9-23, 16-30) | 5.32 | 4.97 | 5.62 | 
5 | C#CC[C@@H]1NC(=O)[C@@H]2CCCN2C(=O)[C@H]([C@@H](C)CC)NC(=O)[C@@H]2CSSC[C@@H]3NC(=O)[C@H](C(C)C)NC(=O)[C@H](CC(C)C)NC(=O)[C@H](CC(N)=O)NC(=O)[C@@H]4CCCN4C(=O)[C@H](CCCNC(=N)N)NC(=O)[C@H](CSSC[C@H](NC(=O)[C@@H](N)CC(=O)O)C(=O)N[C@@H](CC(C)C)C(=O)NCC(=O)N[C@@H](C)C(=O)N[C@@H](Cc4ccccc4)C(=O)N[C@@H](CCCNC(=N)N)C(=O)N[C@@H](CCCCN)C(=O)N2)NC(=O)[C@H](CSSC[C@@H](C(=O)N[C@@H](CCCCN)C(=O)N[C@@H](Cc2ccc(O)cc2)C(=O)N[C@H](C(=O)N[C@@H](Cc2ccccc2)C(N)=O)C(C)C)NC(=O)[C@H](Cc2c[nH]c4ccccc24)NC(=O)[C@H](CCCNC(=N)N)NC(=O)[C@H](Cc2c[nH]cn2)NC(=O)[C@H](CC(C)C)NC(=O)[C@H](CCCNC(=N)N)NC(=O)[C@H](CO)NC3=O)NC(=O)[C@H](CCCCN)NC(=O)[C@H](CC(=O)O)NC(=O)[C@H](CC(N)=O)NC1=O [compound 803] | 6.92 | 4.44 | 6.89 | 
6 | C#CCCC(=O)N[C@@H](CC(=O)O)C(=O)N[C@H]1CSSC[C@@H]2NC(=O)[C@@H]3CSSC[C@@H](C(=O)N[C@@H](CCCCN)C(=O)N[C@@H](Cc4ccc(O)cc4)C(=O)N[C@H](C(=O)N[C@@H](Cc4ccccc4)C(N)=O)C(C)C)NC(=O)[C@H](Cc4c[nH]c5ccccc45)NC(=O)[C@H](CCCCN)NC(=O)[C@H](Cc4c[nH]cn4)NC(=O)[C@H]([C@@H](C)O)NC(=O)[C@H](CCCNC(=N)N)NC(=O)[C@H](CO)NC(=O)[C@H](CSSC[C@H](NC(=O)[C@H](CCCCN)NC(=O)[C@H](CCCNC(=N)N)NC(=O)[C@H](CC(C)C)NC(=O)[C@H](CC)NC(=O)CNC(=O)[C@H](CC(C)C)NC1=O)C(=O)N[C@@H]([C@@H](C)CC)C(=O)N1CCC[C@H]1C(=O)N[C@@H](CC(=O)O)C(=O)N[C@@H](CC)C(=O)N[C@@H](CC(=O)O)C(=O)N[C@@H](CCCCN)C(=O)N3)NC(=O)[C@H](C(C)C)NC(=O)[C@H](CC(C)C)NC(=O)[C@H](CC(N)=O)NC(=O)[C@@H]1CCCN1C(=O)[C@H](CCCNC(=N)N)NC2=O [compound 758] (Pent4ynoyl-DCLG[Abu]LRKCIPD[Abu]DKCCRPNLVCSRTHKWCKYVF-NH2; disulfide 2-17, 9-23, 16-30) | 6.16 | 4.49 | 6.34 | 
7 | CC[C@H](C)[C@@H]1NC(=O)[C@@H]2CSSC[C@@H]3NC(=O)[C@H](C(C)C)NC(=O)[C@H](CC(C)C)NC(=O)[C@H](CC(N)=O)NC(=O)[C@@H]4CCCN4C(=O)[C@H](CCCNC(=N)N)NC(=O)[C@H](CSSC[C@H](NC(=O)[C@@H](N)CC(=O)O)C(=O)N[C@@H](CC(C)C)C(=O)NCC(=O)N[C@@H](Cc4ccccc4)C(=O)N[C@@H](CCSC)C(=O)N[C@@H](CCCNC(=N)N)C(=O)N[C@@H](CCCCN)C(=O)N2)NC(=O)[C@H](CSSC[C@@H](C(=O)N[C@@H](CCCNC(=NC)NC)C(=O)N[C@@H](Cc2ccc(O)cc2)C(=O)N[C@H](C(=O)N[C@@H](Cc2ccccc2)C(N)=O)C(C)C)NC(=O)[C@H](Cc2c[nH]c4ccccc24)NC(=O)[C@H](CCCCN)NC(=O)[C@H](Cc2c[nH]cn2)NC(=O)[C@H]([C@@H](C)O)NC(=O)[C@H](CCCNC(=N)N)NC(=O)[C@H](CO)NC3=O)NC(=O)[C@H](CCCCN)NC(=O)[C@H](CC(=O)O)NC(=O)[C@H](CC(N)=O)NC(=O)[C@H](CC(=O)O)NC(=O)[C@@H]2CCCN2C1=O [compound 365] (H-DCLGFMRKCIPDNDKCCRPNLVCSRTHKWC[Arg(Me2s)]YVF-NH2; disulfide 2-17, 9-23, 16-30) |  |  |  | pIC50 ([1]; Table 25, use, […]): 5.34; pIC50 ([2]; Table 25, use, […]): 4.85; pIC50 ([3]; Table 25, use, […]): 5.38
8 | CC[C@H](C)[C@@H]1NC(=O)[C@@H]2CSSC[C@@H]3NC(=O)[C@H](C(C)C)NC(=O)[C@H](CC(C)C)NC(=O)[C@H](CC(N)=O)NC(=O)[C@@H]4CCCN4C(=O)[C@H](CCCNC(=N)N)NC(=O)[C@H](CSSC[C@H](NC(=O)[C@@H](N)CC(=O)O)C(=O)N[C@@H](CC(C)C)C(=O)NCC(=O)N[C@@H](Cc4ccc(C(=O)O)cc4)C(=O)N[C@@H](CCSC)C(=O)N[C@@H](CCCNC(=N)N)C(=O)N[C@@H](CCCCN)C(=O)N2)NC(=O)[C@H](CSSC[C@@H](C(=O)N[C@@H](CCCCN)C(=O)N[C@@H](Cc2ccc(O)cc2)C(=O)N[C@H](C(=O)N[C@@H](Cc2ccccc2)C(N)=O)C(C)C)NC(=O)[C@H](Cc2c[nH]c4ccccc24)NC(=O)[C@H](CCCCN)NC(=O)[C@H](Cc2c[nH]cn2)NC(=O)[C@H]([C@@H](C)O)NC(=O)[C@H](CCCNC(=N)N)NC(=O)[C@H](CO)NC3=O)NC(=O)[C@H](CCCCN)NC(=O)[C@H](CC(=O)O)NC(=O)[C@H](CC(N)=O)NC(=O)[C@H](CC(=O)O)NC(=O)[C@@H]2CCCN2C1=O [SEQ ID NO: 276] |  |  |  | pIC50 [1, 4]: 5.27; pIC50 [2, 4]: 5.09; pIC50 [3, 4]: 4.80
